One block for each molecule: values may come before it.
What was measured:
HSPDE10A1 [1] = target: T1, HSPDE10A1 (Homo sapiens, UniProt Q9HCR9); assay: Inhibition of HSPDE10A1 PDE activity, scintillation proximity assay with cGMP as substrate
PDEs (non-selective) = settings: range observed for other PDEs; read-out: Selective for PDE type (IC50): non-selective; cited from earlier work
PDE3 = settings: read-out: Selective for PDE type (IC50): PDE3; cited from earlier work
PDE4 = settings: read-out: Selective for PDE type (IC50): PDE4; cited from earlier work
HSPDE10A1 [2] = target: T1, HSPDE10A1; assay: HSPDE10A1 enzyme kinetics (Km, Vmax) with cAMP and cGMP as substrates; settings: substrate 0.15-10 μM, Michaelis-Menten plot

T1 sequence (Q9HCR9 445-933): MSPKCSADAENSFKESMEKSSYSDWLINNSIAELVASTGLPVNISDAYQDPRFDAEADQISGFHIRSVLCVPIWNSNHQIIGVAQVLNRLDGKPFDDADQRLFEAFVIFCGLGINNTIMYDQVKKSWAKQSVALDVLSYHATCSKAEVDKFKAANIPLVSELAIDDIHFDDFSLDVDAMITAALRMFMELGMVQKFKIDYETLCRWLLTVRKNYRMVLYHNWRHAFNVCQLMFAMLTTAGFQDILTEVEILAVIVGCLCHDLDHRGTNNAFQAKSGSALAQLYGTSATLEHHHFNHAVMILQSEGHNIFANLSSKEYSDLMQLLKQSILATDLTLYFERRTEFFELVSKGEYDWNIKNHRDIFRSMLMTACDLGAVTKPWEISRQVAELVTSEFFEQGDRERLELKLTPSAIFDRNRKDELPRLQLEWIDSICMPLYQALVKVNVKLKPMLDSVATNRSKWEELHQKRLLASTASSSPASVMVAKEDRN

- IC50 (HSPDE10A1 [1]): 40 µM
Structure (SMILES): CC(C)Cn1c(=O)n(C)c(=O)c2[nH]cnc21 [IBMX, 3-isobutyl1-methylxanthine]
- IC50 (PDEs (non-selective)): 2 to 50 µM

Structure (SMILES): Cc1[nH]c(=O)c(C#N)cc1-c1ccncc1 [Milrinone]
- IC50 (PDE3): 1 µM
- IC50 (HSPDE10A1 [1]): > 200 µM

- IC50 (HSPDE10A1 [1]): 160 µM
Structure (SMILES): COc1ccc(C2CNC(=O)C2)cc1OC1CCCC1 (centres unmarked) [Rolipram]

- Km (HSPDE10A1 [2]; read-out: Km for HSPDE10A1): 0.52 µM
- Vmax (rate of hydrolysis by HSPDE10A1) (HSPDE10A1 [2]): 0.21 μmole/min/ml enzyme
Structure (SMILES): Nc1nc2c(ncn2[C@@H]2O[C@@H]3COP(=O)(O)O[C@H]3[C@H]2O)c(=O)[nH]1 [cGMP]
